pIC50: −log10 of the molar value.
Key:
[1] = Inhibition of ACT (unknown origin)
Enterococcus faecalis = test: Antimicrobial activity against Enterococcus faecalis ATCC 29212 assessed as microbial growth inhibition

| SMILES | pIC50 [1] | pIC50 (Enterococcus faecalis) |
| --- | --- | --- |
| CC(C)OC(=O)[C@H](Cc1ccccc1)NP(=O)(N[C@@H](Cc1ccccc1)C(=O)OC(C)C)OCOCCn1cnc2c(N)nc(F)nc21 | 6.84 |  |
| CCCC(C)CC(C)CC(C)/C=C(C)/C=C/C(O)C(C)C(=O)OC1C(O)CN2CC1NC[C@H]1O[C@@H](OC([C@H]3O[C@@H](n4ccc(=O)[nH]c4=O)[C@H](O)[C@@H]3OS(=O)(=O)O)C2C(=O)O)[C@H](O)[C@@H]1O (some centres not stated) |  | 7.92 |

Reference: BindingDB's records for PubMed 27607900 (Cardiff University, 2016)
